Source: patent publication US11339448B2, “Treatment of acute myeloid leukemia” (Ottawa Hospital Research Institute, priority 2018, dated 2022)

Tests used:
Type in all cases: cell-based, human
[1] = tested on: Lin−CD34+ HSPCs; assay: Alkaline comet assay (DNA damage accumulation, Olive moment); settings: for DNA damage accumulation (Olive moment): scramble vs MTF2 shRNA transduced HSPCs, over a 48-hour period; for DNA damage accumulation: MTF2-deficient HSPCs, in combination with Cytarabine or Daunorubicin
Procedure: Alkaline comet assays were performed using GelBond Films and buffers were prepared as described^22. Slides were stained with SYBR Gold and imaged using Zeiss Axio2 Imaging inverted microscope equipped with a 5× Plan-NEOFLUAR 0.3NA objective and an AxioCam MRm camera through a FITC-compatible filter. At least 10 random fields containing a minimum of 20 non-overlapping comets in each group total were photographed. Blinded imaging acquisition and analysis was performed using ImageJ software (NIH) and the OpenComet comet assay plugin calculating Olive moment (arbitrary units) on the basis of comet head and tail sizes (measured in pixels) and their integral intensity. The magnitude of these parameters depends on time of electrophoresis, staining brightness and image magnification, which were constant within each assay and between experiments. Comet assays were independently repeated using HSPCs isolated from 3 different UCB samples. Statistical significance was determined by two-way ANOVA using GraphPad Prism software version 6.
(§1) Lin^−CD34^+ cells isolated from either umbilical cord blood or primary AML patient bone marrow aspirates were transduced as above, sorted for GFP^+ and cultured in 96-well plates at 100,000 cells/100 uL/well in duplicates. The drugs Daunorubicin, Cytarabine, Nutlin3a and M1773 were dissolved in DMSO. Cytarabine and Daunorubicin were added at concentrations of 1 μM and 0.5 μM, respectively. After 1 hour of incubation with Daunorubicin, cells were collected and transferred into fresh media to remove Daunorubicin from the media. The MDM2 pathway inhibitors, Nutlin3a and M1773 were added at concentrations of 1 μM.

[2] = tested on: MTF2 deficient refractory AML cells [MD-AML]; assay: Cell viability / apoptosis assay (Annexin V/7-AAD) in primary AML patient cells; settings: for viability of CD34+CD38− cells from MD-AML patients: 0.5 μM Daunorubicin or 1 μM Cytarabine, over 48 hours; for apoptosis: MD-AML cells, in combination with Cytarabine or Daunorubicin; for sensitivity to Cytarabine / sensitivity to Daunorubicin: MD-AML, comparable to B-AML; for sensitivity to Cytarabine: combination with Cytarabine; for sensitivity to Daunorubicin: combination with Daunorubicin; for apoptosis / apoptotic effect, MDM2 inhibitor alone: treatment alone, over the course of 48 hours
Procedure: Lin^−CD34^+ primary AML bone marrow cells were maintained in IMDM media containing SCF (100 ng/mL), FLT3 (50 ng/mL), IL-3 (20 ng/mL), G-CSF (20 ng/mL) and 10^−4M Beta-mercaptoethanol^21. Growth factors were purchased from Peprotech. On Day 1 of infection, cells were incubated with polybrene (6 mg/ml) for 2 hours at 37° C., then combined with viral supernatants containing either a GFP-tagged MTF2 overexpression vector clone or an empty vector control at a MOI of 30.
(§2) Apoptosis was assessed in sorted cells by the dual staining of AnnexinV and 7-AAD (eBiosciences). Flow cytometric analyses of treated samples were performed consistently, using the same gating strategy throughout. Viable cells were categorized as being AnnexinV and 7-AAD negative, late apoptotic/dead cells were categorized as being AnnexinV and 7-AAD positive.
as §1

[3] = tested on: MTF2 shRNA knockdown (SH3 or SH7) HSPCs; assay: Cell cycle (DRAQ5) and PCNA proliferation analysis in HSPCs; settings: for fraction of viable MTF2-deficient cells that were PCNA+: MTF2-deficient HSPCs, 48 hours post-treatment; for overall PCNA levels (proliferation): MTF2 deficient (SH3 or SH7) HSPCs, 1 μM, 24 hours post-treatment; for population distribution within the cell cycle stages: scramble or MTF2 knockdown HSPCs, 1 μM for 24 hours
Procedure: (§3) Cells were sorted using cell surface markers, then fixed in 4% PFA, permeabilized with 0.3% Triton and stained for MTF2 (Genway, clone M96), EZH2 (Millipore, clone AC22), SUZ12 (Millipore, clone 2AO9), H3K27me3 (Cell Signaling, clone C36B11), PCNA (Santa Cruz, clone C10), p53 (Cell Signaling, clone 1C12), or MDM2 (Santa Cruz, clone C18) and appropriate secondary antibodies. Protein expression was determined by flow cytometry compared with an isotype-only control and ran on the LSRFortessa™ Cell Analyzer (BD Biosciences). Data analysis was performed using FlowJo v10.2 to compare mean fluorescent intensity values.
(§4) For cell cycle analysis, cells were fixed and stained with DRAQ5 (BD Biosciences) to assess cell cycle state. For assessing p53 signaling and MTF2 rescue experiments, cells were stained with antibodies against p53, MDM2 or H3K27me3 as above and with DRAQ5 for nucleic acid detection. Cells were analyzed using the ImageStream imaging flow cytometer (Amnis). The nuclear contents of each protein were determined using the preset wizard tool “Nuclear Localization”, within the Amnis IDEAS analysis software.
as §1

[4] = tested on: p53 levels in Lin−CD34+ leukemic cells (MD-AML); assay: Imaging flow cytometry of p53 levels in refractory patient leukemic cells; settings: Lin−CD34+ leukemic cells from refractory patient BM aspirates (MD-AML)
Procedure: as §3, §4
Lin^−CD34^+ cells isolated from either umbilical cord blood or primary AML patient bone marrow aspirates were transduced as above, sorted for GFP^+ and cultured in 96-well plates at 100,000 cells/100 uL/well in duplicates. […]

[5] = tested on: Lin−CD34+ HSPCs; assay: Cell viability / apoptosis assay (Annexin V/7-AAD) in shRNA-transduced HSPCs; settings: for sensitivity to induction therapy drugs (cell viability): MTF2-deficient HSPCs, in combination with Cytarabine or Daunorubicin
Procedure: HSPCs (Lin^−CD34^+) were maintained in IMDM media containing bovine serum albumin, insulin, and transferrin (Stem Cell Technologies), 1% PenStrep (ThermoFisher), SCF (100 ng/mL), TPO (50 ng/mL), FLT3 (100 ng/mL), 1% Glutamax (InVitrogen), and LDL (1 μg/ml) (Calbiochem). Growth factors were purchased from Peprotech. On Day 1 of infection, cells were incubated with polybrene (Sigma) (6 mg/ml) for 2 hours at 37° C., then combined with viral supernatants containing either a GFP-tagged MTF2 shRNA clone or a scrambled shRNA control (ThermoFisher) at a MOI of 100. Cells were centrifuged at 400 g for 20 minutes, then maintained at 37° C. On Day 2, the infection was repeated. Cells were grown for 3 days using a fed-batch culture system^21, then sorted for high GFP-expression and viability by negative selection of Propidium Iodide using the Beckman Coulter MoFlo sorter.
as §2, §1

[6] = tested on: MDM2 and p53 levels; assay: Imaging flow cytometry of MDM2 and p53 levels in MTF2 knockdown HSPCs; settings: for MDM2 and p53 levels within the nucleus: MTF2 knockdown (SH3) HSPCs, 1 μM
Procedure: as §3, §4, §1

[7] = MTF2 knockdown (SH7) HSPCs, 1 uM

For `COc1cccc2c1C(=O)c1c(O)c3c(c(O)c1C2=O)C[C@@](O)(C(C)=O)C[C@@H]3O[C@H]1C[C@H](N)[C@H](O)[C@H](C)O1` [Daunorubicin], the “DNA damage accumulation (Olive moment)” value [1] was “highest levels of DNA damage were found in the scramble control HSPCs”, the “viability of CD34+CD38− cells from MD-AML patients” value [2] was “remain viable over 48 hours” and the “fraction of viable MTF2-deficient cells that were PCNA+” value [3] was “two-thirds”.
For `COc1ccc(C2=N[C@@H](c3ccc(Cl)cc3)[C@@H](c3ccc(Cl)cc3)N2C(=O)N2CCNC(=O)C2)c(OC(C)C)c1` [Nutlin3A, 4-[(4S,5R)-4,5-bis(4-chlorophenyl)-2-(4-methoxy-2-propan-2-yloxyphenyl)-4,5-dihydroimidazole-1-carbonyl]piperazin-2-one], the DNA damage accumulation [1] was “same amount of DNA damage accumulation as that found within scramble controls”, the p53 levels [4] was “rescued” and the apoptosis [2] was “underwent apoptosis”. The “sensitivity to Cytarabine” value ([2]; 48 hours) was “increased sensitivity”, the “sensitivity to Cytarabine” value ([2]; within 24 hours) was “increased sensitivity” and the “sensitivity to Daunorubicin” value ([2]; 48 hours) was “increased sensitivity”. For the same molecule, the “sensitivity to Daunorubicin” value ([2]; within 24 hours) was “increased sensitivity”, the “apoptosis / apoptotic effect, MDM2 inhibitor alone” value ([2]; listed as Nutlin3a) was “very low apoptotic effect” and the “sensitivity to induction therapy drugs (cell viability)” value [5] was “sensitized to induction therapy drugs”. For the same molecule, the “overall PCNA levels (proliferation)” value [3] was “decrease in overall PCNA levels”, the “population distribution within the cell cycle stages” value [3] was “arresting in G0/G1” and the p53 levels ([6]; MTF2-deficient HSPCs) was “rescued”. For the same molecule, the “MDM2 and p53 levels within the nucleus” value [6] was “reestablished MDM2 and p53 levels to those observed in the scramble untreated control”, the MDM2 levels [6, 7] was “low” and the p53 levels [6, 7] was “restored”.
With `Nc1ccn([C@@H]2O[C@H](CO)[C@@H](O)[C@@H]2O)c(=O)n1` [Cytarabine] the “DNA damage accumulation (Olive moment)” value [1] was “highest levels of DNA damage were found in the scramble control HSPCs”, the “viability of CD34+CD38− cells from MD-AML patients” value [2] was “remain viable over 48 hours” and the viability at 1 µM ([5]; Homo sapiens, MTF2 shRNA knockdown HSPCs, 48 hours after treatment (Daunorubicin 0.5 μM or Cytarabine 1 μM), read-out: MTF2-deficient cells viable) was over 60%. The “fraction of viable MTF2-deficient cells that were PCNA+” value [3] was “two-thirds”.
In the case of `CC(C)(C)C[C@H]1N[C@@H](C(=O)NC2CCC(O)CC2)[C@H](c2cccc(Cl)c2F)[C@@]12C(=O)Nc1cc(Cl)ccc12` (stereo partly drawn) [MI-773, (2′R,3S,3′S,5′R)-6-chloro-3′-(3-chloro-2-fluorophenyl)-5′-(2,2-dimethylpropyl)-N-(4-hydroxycyclohexyl)-2-oxospiro[1H-indole-3,4′-pyrrolidine]-2′-carboxamide], the DNA damage accumulation [1] was “same amount of DNA damage accumulation as that found within scramble controls”, the p53 levels [4] was “rescued” and the apoptosis [2] was “underwent apoptosis”. The “sensitivity to Cytarabine” value ([2]; 48 hours) was “increased sensitivity”, the “sensitivity to Cytarabine” value ([2]; within 24 hours) was “increased sensitivity” and the “sensitivity to Daunorubicin” value ([2]; 48 hours) was “increased sensitivity”. For the same molecule, the “sensitivity to Daunorubicin” value ([2]; within 24 hours) was “increased sensitivity”, the “apoptosis / apoptotic effect, MDM2 inhibitor alone” value [2] was “very low apoptotic effect” and the “sensitivity to induction therapy drugs (cell viability)” value [5] was “sensitized to induction therapy drugs”. For the same molecule, the “overall PCNA levels (proliferation)” value [3] was “decrease in overall PCNA levels”, the “population distribution within the cell cycle stages” value [3] was “arresting in G0/G1” and the p53 levels ([6]; MTF2-deficient HSPCs) was “rescued”. For the same molecule, the “MDM2 and p53 levels within the nucleus” value [6] was “reestablished MDM2 and p53 levels to those observed in the scramble untreated control”, the MDM2 levels [6, 7] was “low” and the p53 levels [6, 7] was “restored”.
